Experimental data reported in patent publication US7053178B2, “Synthetic peptides and kits for diagnosis of anti-phospholipid syndrome” (Yeda Research Development Co., LTD, priority 1998, dated 2006).
Where no end group is shown, it is not given here.

Columns and labels:
anti-β2GPI ILA-1 mAb = assay: Competition ELISA: inhibition of ILA-1 mAb binding to β2GPI; design: species or system human; conditions: 10 μM peptide concentration
Protocol: FIGS. 1A–1C are graphs showing inhibition of the anti-β2GPI ILA-1, ILA-3 and G-3 mAbs binding to β2GPI by competition assays using increasing concentrations of the inhibitory monomer peptides A, B and C, respectively, and of unrelated peptide D as control. The percent of inhibition was calculated as follows: % inhibition=O.D control−O.D with inhibitor/O.D control×100. Each point represents mean±SD of three different experiments.
(e) Inhibition of anti-β2GPI mAb binding to β2GPI by the inhibitory peptides. For competition ELISA tests, the anti-β2GPI mAbs (10 μg/ml) were preincubated (overnight at 4° C.) with varying concentrations of the peptides. The competition reaction was then transferred to β2GPI-coated γ-irradiated ELISA plates (Nunc), and the assay continued as described above. The percentage of inhibition was calculated as follows: % inhibition=O.D control −O.D with inhibitor/O.D control×100.
(2a) The specificity of interaction of the mAbs with the corresponding synthetic peptides A, B, C and control peptide D as monomers, was assessed by inhibition experiments as described in Materials and Methods, sections (e) and (f).

[1] = test system: sera of mice immunized with β2GPI; assay: ELISA binding of sera of β2GPI-immunized mice to peptides; design: species or system BALB/c mice; conditions: biotinylated peptide monomers on streptavidin plates, anti-mouse IgG
Protocol: Sera of immunized mice were screened for the presence of mouse antibodies to peptide A, B and C, by ELISA, with streptavidin-coated plates followed by incubation with biotinylated peptide A, B, and C. Blocked plates (3% gelatin) were exposed to different dilutions of the sera. The binding was probed by anti-mouse IgG alkaline phosphatase.
BALB/c mice were immunized (day 0) in the hindfootpads with 10 μg β2GPI in Complete Freund's Adjuvant (CFA), Three weeks after, the mice received a booster injection of β2GPI in PBS. Sera of the mice (anti-β2GPI) were used to screen peptides for the presence of B cell epitopes, as follows: 96-well ELISA plates were coated with streptavidin overnight at 4° C., followed by incubation with biotinylated peptide monomers A, B, C, or D, β2GPI or BSA in PBS (100 μM) for 2 hours at room temperature. The ELISA plates were blocked with 3% gelatin, and the mouse sera were added thereto at different dilutions. Binding was probed with goat anti-mouse IgG alkaline phosphatase.

sera of SLE patients = assay: ELISA binding of SLE patient sera to biotinylated peptides; design: species or system human; conditions: SLE patients (N = 72), sera 1:50
Protocol: (§1) Binding of sera from patients with primary APS or secondary to SLE to the studied peptides was performed by ELISA. 96-well ELISA plates were coated with streptavidin, blocked with gelatin, incubated with biotinylated peptides (A,B,C,D) and blocked with gelatin. Sera of patients with APS or SLE were added at dilution of 1:50 and the percent of binding was probed with anti-human IgM or IgG conjugated to alkaline phosphatase. Half plate was coated with streptavidin without addition of peptide (for non-specific binding).

[2] = test system: affinity purified anti-β2GPI IgM and IgG from APS patients; assay: Competition ELISA: specificity of binding of patient anti-β2GPI IgM and IgG to peptides; design: species or system human; conditions: competition with specific peptide versus cocktail of the other peptides
Protocol: FIGS. 6A–6C show specificity of binding of affinity purified anti-β2GPI IgM and IgG antibodies from APS patients to the inhibitory monomer peptides A, B and C by ELISA, following preincubation of the tested affinity purified immuno-globulin with or without the peptide or the β2GPI molecule, in fluid phase. FIG. 6A: Affinity purified anti-β2GPI IgM and IgG that recognize peptide A were tested for binding to peptide A following preincubation of the purified antibodies with peptide A, cocktail of peptides B+C+D or β2GPI. Each point represents one patient. FIG. 6B: Affinity purified anti-β2GPI IgM and IgG that recognize peptide B were tested for binding to peptide B following preincubation with peptide B, cocktail of peptides A+C+D or β2GPI. Each point represents one patient. FIG. 6C: Affinity purified anti-β2GPI IgM and IgG that recognize peptide C were tested for binding to peptide C following preincubation with peptide C, cocktail of peptides A+B+D or β2GPI. Each point represents one patient.
The specificity of the recognition of the studied anti-β2GPI epitopes A, B, C by anti-β2GPI Abs from APS patients was confirmed by competition assays in which specificity of binding of anti-β2GPI IgM and IgG from patients with APS to the inhibitory peptides was examined. Anti-β2GPI IgG and IgM affinity purified from APS patients (affinity purification of the antibodies was carried out by incubation of cardiolipin lyposomes with patients' sera overnight at 4° C. with rotation following sedimentation of the complexes (30000 rpm), elution of the bound Abs by KI 1M, extraction from the lyposomes by chloroform, and separation of the total anti-β2GPI IgM, IgG Abs into the different isotypes employing either anti-human-IgM-Sepharose or anti-human-IgG-Sepharose (Pharmacia)) were preincubated with β2GPI (triangles), specific peptide monomer (circles) or a cocktail of the other peptides as monomers (squares), and tested for their binding to the specific biotinylated peptide-coated ELISA plates.

[3] = test system: affinity purified anti-β2GPI Abs from APS patients; assay: Fractionation of affinity purified anti-β2GPI Abs on peptide columns; format: binding, human
sera of APS patients = assay: ELISA binding of APS patient sera to biotinylated peptides; design: species or system human; conditions: APS patients (N = 43), sera 1:50
Protocol: ELISA streptavidin-coated plates were incubated with biotinylated A, B or C, control peptide D or cocktail of peptides A+B+C. Following blocking with 5% bovine sera, the patient sera were added at dilution of 1:50. The bound antibodies were detected by administration of anti-human IgG or IgM alkaline phosphatase and appropriate substrate.
as §1

sera of normal donors = assay: ELISA binding of normal donor sera to biotinylated peptides; design: species or system human; conditions: Normal donors (N = 100)
Protocol: as §1

Row | Sequence | inhibition of ILA-1 mAb binding to β2GPI (anti-β2GPI ILA-1 mAb) [%] | reaction with antibodies from mice immunized with β2GPI [1] | Percent of sera recognizing the peptide, IgG (sera of SLE patients) [%] | Percent of sera recognizing the peptide, IgM (sera of SLE patients) [%] | specificity of recognition of the peptide by anti-β2GPI IgM and IgG from APS patients [2] | Fraction of anti-β2GPI Abs (in percentage) recognizing the peptide ([3]; APS patient no. 1) [percentage] | Fraction of anti-β2GPI Abs (in percentage) recognizing the peptide ([3]; APS patient no. 2) [percentage] | Fraction of anti-β2GPI Abs (in percentage) recognizing the peptide ([3]; APS patient no. 3) [percentage] | Fraction of anti-β2GPI Abs (in percentage) recognizing the peptide ([3]; APS patient no. 4) [percentage] | Fraction of anti-β2GPI Abs (in percentage) recognizing the peptide ([3]; APS patient no. 5) [percentage] | Fraction of anti-β2GPI Abs (in percentage) recognizing the peptide ([3]; APS patient no. 6) [percentage] | Fraction of anti-β2GPI Abs (in percentage) recognizing the peptide ([3]; APS patient no. 7) [percentage] | Fraction of anti-β2GPI Abs (in percentage) recognizing the peptide ([3]; APS patient no. 8) [percentage] | Fraction of anti-β2GPI Abs (in percentage) recognizing the peptide ([3]; APS patient no. 9) [percentage] | Fraction of anti-β2GPI Abs (in percentage) recognizing the peptide ([3]; APS patient no. 10) [percentage] | Percent of sera recognizing the peptide, IgG (sera of APS patients) [%] | Percent of sera recognizing the peptide, IgM (sera of APS patients) [%] | Percent of sera recognizing the peptide, IgM (sera of APS patients; listed as peptide A) [%] | Percent of sera recognizing the peptide, IgG (sera of normal donors) [%] | Percent of sera recognizing the peptide, IgM (sera of normal donors) [%]
1 | NTLKTPRVGG [Peptide A] | 97 | reacted specifically | 5.5 | 11 | recognized specifically | 23 | 0.7 | 1.4 | 29 | 0.9 | 29 | 37 | 2.8 | 12 | 0.6 | 7 | 20.9 | 21 | 0 | 2
2 | CATLRVYKGG [Peptide C] | 11 | reacted specifically | 2.8 | 14 | recognized specifically | 0.4 | 3 | 39 | 22 | 1.8 | 23 | 5 | 4.2 | 0.5 | 16.4 | 16.3 | 27.9 | – | 1 | 0
3 | KDKATFGTHDG [Peptide B] | 10 | reacted specifically | 11 | 12.5 | bind specifically | 37 | 15 | 0.5 | 43 | 29 | 14 | 18 | 33 | 1.3 | 7.9 | 20.9 | 25.6 | – | 0 | 1
